Consider 16 molecules from patent US7994320B2, “Narcistatin prodrugs” (priority 2002, dated 2011).

For one data set, the system named is NCI-H460. Nature of the data set: Human cancer cell line growth inhibition, lung NCI-H460. Type of data set: cell-based. How it is done: (§1) Narciclasine cyclic phosphate prodrugs 3a-o were evaluated against a minipanel of human cancer cell lines and the murine P388 lymphocytic leukemia. The GI50 0.1-0.02 μg/ml strong activity range parallels that already reported for the parent, narciclasine (1). (Pettit, G. R.; Melody, N.; Herald, D. L. J. Org. Chem. 2001, 66, 2583-2587.)

Another data set relates to MCF-7. Briefly: Human cancer cell line growth inhibition, breast MCF-7. Format: cell-based. On the procedure: as §1
Another data set concerns DU-145. Briefly: Human cancer cell line growth inhibition, prostate DU-145. Type of data set: cell-based. How it is done:
as §1

In another data set the test system is BXPC-3. Nature of the data set: Human cancer cell line growth inhibition, pancreas BXPC-3. Format: cell-based. On the procedure: as §1
The next data set has as its system KM20L2. Nature of the data set: Human cancer cell line growth inhibition, colon KM20L2. Format: cell-based. How it is done:
as §1

In another data set the test system is SF 268. Nature of the data set: Human cancer cell line growth inhibition, CNS SF 268. Type of data set: cell-based. How it is done:
as §1

Data set [1] has as its system Erlich asciter cancer cells. Conditions: cited from earlier work.
A further data set concerns M5076 sarcoma. Conditions: U.S. National Cancer Institute research; cited from earlier work.
Another data set can be described thus: Solubility in water. Particulars: solvent not stated.
For data set [2], the system named is P388 lymphocytic leukemia. Conditions: U.S. National Cancer Institute research; cited from earlier work.

`O=C1N[C@@H]2C(=C[C@H](O)[C@H]3OP(=O)(O)O[C@H]32)c2cc3c(c(O)c21)OCO3.c1ccncc1` [Compound 3a, Pyridinium Narcistatin]: in the data set with NCI-H460, the “GI50 Lung-NSC NCI-H460” value is 0.27 µg/mL. Moreover, the “GI50 Breast MCF-7” value in the data set on MCF-7 came to 0.27 µg/mL. The “GI50 Prostate DU-145” value in the data set on DU-145 turned out to be 0.17 µg/mL. The “GI50 Pancreas-a BXPC-3” value with BXPC-3 worked out at 0.22 µg/mL. In addition, in the data set on KM20L2, the “GI50 Colon KM20L2” value was 0.34 µg/mL. In addition, in the data set on SF 268, the “GI50 CNS SF 268” value is 0.15 µg/mL.
With `O=C1NC2C(=CC(O)C3OP(=O)([O-])OC23)c2cc3c(c(O)c21)OCO3.O=C1NC2C(=CC(O)C3OP(=O)([O-])OC23)c2cc3c(c(O)c21)OCO3.[Mn+2]` (stereo not shown) [Compound 3j, Manganese Narcistatin], the “GI50 Lung-NSC NCI-H460” value in the data set with NCI-H460 was 0.15 µg/mL. Further, in the data set with MCF-7, the “GI50 Breast MCF-7” value turned out to be 0.07 µg/mL. In the data set on DU-145, the “GI50 Prostate DU-145” value was 0.034 µg/mL. Besides, the “GI50 Pancreas-a BXPC-3” value with BXPC-3 is 0.049 µg/mL. Also, in the data set with KM20L2, the “GI50 Colon KM20L2” value came out at 0.13 µg/mL. For the same molecule, the “GI50 CNS SF 268” value in the data set on SF 268 came to 0.04 µg/mL.
For `C=C[C@@H]1CN2CC[C@@H]1C[C@H]2[C@@H](O)c1ccnc2ccc(OC)cc12.O=C1N[C@@H]2C(=C[C@H](O)[C@H]3OP(=O)(O)O[C@H]32)c2cc3c(c(O)c21)OCO3` [Compound 3k, Quinidinium Narcistatin], the “GI50 Lung-NSC NCI-H460” value with NCI-H460 was found to be 0.77 µg/mL. In the data set with MCF-7, the “GI50 Breast MCF-7” value is 0.5 µg/mL. In addition, the “GI50 Prostate DU-145” value in the data set on DU-145 turned out to be 0.22 µg/mL. In the data set with BXPC-3, the “GI50 Pancreas-a BXPC-3” value was determined as 0.31 µg/mL. The “GI50 Colon KM20L2” value in the data set on KM20L2 is 0.58 µg/mL. Besides, in the data set on SF 268, the “GI50 CNS SF 268” value worked out at 0.25 µg/mL.
Consider `C=C[C@@H]1CN2CC[C@@H]1C[C@@H]2[C@H](O)c1ccnc2ccc(OC)cc12.O=C1N[C@@H]2C(=C[C@H](O)[C@H]3OP(=O)(O)O[C@H]32)c2cc3c(c(O)c21)OCO3` [Compound 3l, Quininium Narcistatin], for which the “GI50 Lung-NSC NCI-H460” value in the data set on NCI-H460 stood at 0.17 µg/mL. Further, the “GI50 Breast MCF-7” value in the data set on MCF-7 was 0.12 µg/mL. In addition, the “GI50 Prostate DU-145” value in the data set with DU-145 came to 0.013 µg/mL. The “GI50 Pancreas-a BXPC-3” value in the data set on BXPC-3 was determined as 0.051 µg/mL. Besides, in the data set on KM20L2, the “GI50 Colon KM20L2” value is 0.12 µg/mL. In addition, the “GI50 CNS SF 268” value in the data set with SF 268 was 0.045 µg/mL.
With `C1COCCN1.O=C1N[C@@H]2C(=C[C@H](O)[C@H]3OP(=O)(O)O[C@H]32)c2cc3c(c(O)c21)OCO3` [Compound 3n, Morpholinium Narcistatin], the “GI50 Lung-NSC NCI-H460” value in the data set with NCI-H460 is more than 1 µg/mL. Also, the “GI50 Breast MCF-7” value in the data set with MCF-7 turned out to be 0.48 µg/mL. In addition, the “GI50 Prostate DU-145” value in the data set with DU-145 is 0.14 µg/mL. Moreover, in the data set with BXPC-3, the “GI50 Pancreas-a BXPC-3” value was 0.25 µg/mL. For the same molecule, the “GI50 Colon KM20L2” value with KM20L2 is 0.54 µg/mL. Besides, in the data set with SF 268, the “GI50 CNS SF 268” value was 0.24 µg/mL.
As for `O=C1N[C@@H]2C(=C[C@H](O)[C@@H](O)[C@H]2O)c2cc3c(c(O)c21)OCO3` [narciclasine (1), narciclasine], in [1], the “inhibition of protein synthesis” value is reported as “inhibit protein synthesis”. Moreover, the “activity against in vivo growth of M5076 sarcoma” value with M5076 sarcoma is given as “active”. In addition, the “solubility” value in “Solubility in water” is reported as “sparingly soluble”. Also, the “activity against in vivo growth of P388 lymphocytic leukemia” value in data set [2] is “active”.
As to Calcium Narcistatin [Compound 3h], the “GI50 Lung-NSC NCI-H460” value in the data set with NCI-H460 came out at 0.12 µg/mL. The “GI50 Breast MCF-7” value with MCF-7 came out at 0.059 µg/mL. Further, the “GI50 Prostate DU-145” value in the data set on DU-145 stood at 0.0093 µg/mL. Besides, the “GI50 Pancreas-a BXPC-3” value in the data set with BXPC-3 was found to be 0.045 µg/mL. In the data set with KM20L2, the “GI50 Colon KM20L2” value amounted to 0.059 µg/mL. Besides, in the data set with SF 268, the “GI50 CNS SF 268” value was found to be 0.031 µg/mL.
For the molecule Cesium Narcistatin [Compound 3f], in the data set on NCI-H460, the “GI50 Lung-NSC NCI-H460” value was more than 1 µg/mL. Also, the “GI50 Breast MCF-7” value in the data set with MCF-7 came out at 0.62 µg/mL. In addition, in the data set with DU-145, the “GI50 Prostate DU-145” value was determined as 0.13 µg/mL. Besides, in the data set with BXPC-3, the “GI50 Pancreas-a BXPC-3” value turned out to be 0.41 µg/mL. For the same molecule, the “GI50 Colon KM20L2” value in the data set with KM20L2 came out at 0.66 µg/mL. Besides, the “GI50 CNS SF 268” value in the data set on SF 268 turned out to be 0.33 µg/mL.
In the case of Imidazolium Narcistatin [Compound 3m], the “GI50 Lung-NSC NCI-H460” value with NCI-H460 was more than 1 µg/mL. Further, the “GI50 Breast MCF-7” value with MCF-7 came to 0.9 µg/mL. The “GI50 Prostate DU-145” value in the data set on DU-145 was 0.44 µg/mL. In the data set on BXPC-3, the “GI50 Pancreas-a BXPC-3” value was 0.45 µg/mL. In addition, the “GI50 Colon KM20L2” value in the data set with KM20L2 is more than 1 µg/mL. In addition, the “GI50 CNS SF 268” value in the data set on SF 268 turned out to be 0.38 µg/mL.
Take Lithium Narcistatin [Compound 3c]: the “GI50 Lung-NSC NCI-H460” value in the data set on NCI-H460 is 0.3 µg/mL. Besides, the “GI50 Breast MCF-7” value with MCF-7 stood at 0.31 µg/mL. Moreover, in the data set on DU-145, the “GI50 Prostate DU-145” value is 0.13 µg/mL. Further, in the data set with BXPC-3, the “GI50 Pancreas-a BXPC-3” value worked out at 0.25 µg/mL. Further, the “GI50 Colon KM20L2” value with KM20L2 stood at 0.26 µg/mL. In addition, the “GI50 CNS SF 268” value in the data set on SF 268 stood at 0.17 µg/mL.
For the molecule Magnesium Narcistatin [Compound 3g], the “GI50 Lung-NSC NCI-H460” value in the data set with NCI-H460 was determined as 0.29 µg/mL. In addition, in the data set on MCF-7, the “GI50 Breast MCF-7” value was found to be 0.25 µg/mL. Besides, in the data set with DU-145, the “GI50 Prostate DU-145” value worked out at 0.1 µg/mL. For the same molecule, the “GI50 Pancreas-a BXPC-3” value in the data set on BXPC-3 stood at 0.19 µg/mL. In addition, the “GI50 Colon KM20L2” value in the data set on KM20L2 was found to be 0.31 µg/mL. For the same molecule, the “GI50 CNS SF 268” value with SF 268 worked out at 0.14 µg/mL.
Consider Narcistatin [Compound 3b], for which the “GI50 Lung-NSC NCI-H460” value in the data set on NCI-H460 was found to be 0.47 µg/mL. The “GI50 Breast MCF-7” value with MCF-7 worked out at 0.35 µg/mL. The “GI50 Prostate DU-145” value in the data set on DU-145 amounted to 0.16 µg/mL. For the same molecule, the “GI50 Pancreas-a BXPC-3” value in the data set with BXPC-3 was 0.33 µg/mL. The “GI50 Colon KM20L2” value with KM20L2 is 0.53 µg/mL. For the same molecule, the “GI50 CNS SF 268” value in the data set with SF 268 amounted to 0.22 µg/mL.
For the molecule Piperazinium Narcistatin [Compound 3o], the “GI50 Lung-NSC NCI-H460” value in the data set on NCI-H460 came out at 0.24 µg/mL. Moreover, the “GI50 Breast MCF-7” value in the data set with MCF-7 stood at 0.17 µg/mL. The “GI50 Prostate DU-145” value in the data set on DU-145 stood at 0.032 µg/mL. Besides, the “GI50 Pancreas-a BXPC-3” value in the data set with BXPC-3 was 0.1 µg/mL. In the data set on KM20L2, the “GI50 Colon KM20L2” value is 0.22 µg/mL. In the data set on SF 268, the “GI50 CNS SF 268” value amounted to 0.099 µg/mL.
Turning to Potassium Narcistatin [Compound 3e], the “GI50 Lung-NSC NCI-H460” value in the data set with NCI-H460 was 0.67 µg/mL. In the data set on MCF-7, the “GI50 Breast MCF-7” value was 0.4 µg/mL. Further, the “GI50 Prostate DU-145” value in the data set on DU-145 amounted to 0.26 µg/mL. The “GI50 Pancreas-a BXPC-3” value with BXPC-3 was found to be 0.36 µg/mL. For the same molecule, the “GI50 Colon KM20L2” value in the data set on KM20L2 is 0.56 µg/mL. For the same molecule, the “GI50 CNS SF 268” value with SF 268 is 0.19 µg/mL.
Take Sodium Narcistatin [Compound 3d]: the “GI50 Lung-NSC NCI-H460” value in the data set on NCI-H460 is more than 1 µg/mL. Further, the “GI50 Breast MCF-7” value in the data set on MCF-7 stood at 0.56 µg/mL. Moreover, in the data set with DU-145, the “GI50 Prostate DU-145” value came out at 0.12 µg/mL. Also, the “GI50 Pancreas-a BXPC-3” value in the data set with BXPC-3 came out at 0.32 µg/mL. Also, the “GI50 Colon KM20L2” value in the data set with KM20L2 stood at 0.45 µg/mL. Besides, the “GI50 CNS SF 268” value with SF 268 came to 0.23 µg/mL.
For Zinc Narcistatin [Compound 3i], the “GI50 Lung-NSC NCI-H460” value in the data set with NCI-H460 stood at 0.21 µg/mL. The “GI50 Breast MCF-7” value in the data set on MCF-7 came to 0.14 µg/mL. The “GI50 Prostate DU-145” value with DU-145 is 0.016 µg/mL. In addition, the “GI50 Pancreas-a BXPC-3” value in the data set with BXPC-3 was 0.069 µg/mL. Besides, the “GI50 Colon KM20L2” value in the data set on KM20L2 stood at 0.16 µg/mL. Further, in the data set on SF 268, the “GI50 CNS SF 268” value stood at 0.053 µg/mL.
